Residues, ends and D or L forms follow the SMILES beside them.

For one assay, the target named is HLA-B*27:05 (Homo sapiens, UniProt P01889, D138H/D201E/E176V/E204Q/G107R/H137Y/K202T/N104T/N87E/Q56L/Q94K/R106L/R155S/R180L/S101D/S121N/S48T/Y140D/Y33H/Y91C). The assay can be described thus: Peptide/HLA binding affinity assay. The settings on record: EC50 = peptide concentration at half saturation; HLA heavy chain refolded with varying peptide conc., 20–24 h, room temperature, ELISA 450 nm; <100 nM = high affinity. An excerpt: Plates were then developed using ELISA.

A further assay concerns the target HLA-C*07:01 (Homo sapiens, UniProt P10321, K90N/S123Y). The assay can be described thus: biochemical. The procedure:
(§1) The affinity of peptide/HLA binding was determined as described before ([21], [22]). Briefly, biotinylated HLA Class I heavy chains were denatured and diluted into refolding buffer containing β-mercaptoethanol and varying concentrations of the test/control peptides. The mixtures were incubated with agitation at room temperature for 20–24 hours to enable peptide/HLA complex formation. The solutions containing the complexes were transferred to streptavidin plates and incubated for 30 minutes. Plates were then developed using ELISA. Absorbance measured at 450 nm was graphed against the varying concentrations of the test peptide used. The affinity of peptide/HLA binding was determined by calculating the EC50, defined as the peptide concentration resulting in half saturation. Peptides with an EC50 under 100 nM were classified as high affinity binders.

For the next assay, the target named is HLA-B*35:01 (Homo sapiens, UniProt P01889, A329T/A93T/A95T/C349S/D201E/D98Y/E176V/E187L/E204Q/E69T/I218V/K202T/L119I/Q94N/R155S/R180L/S121R/S35A/S48A/T118I/V127L/V306I/V36M/Y140S/Y91F). The assay can be described thus: biochemical. The procedure: as §1
The next assay concerns the target HLA-B*40:01 (Homo sapiens, UniProt P01889, A65T/A93T/A95T/D138N/D98Y/E176V/E69K/N87E/Q56L/Q94N/R180L/S121R/S35A/S48T/T167S/V36M/W171L/Y33H/Y91S). The assay can be described thus: biochemical. The procedure: as §1
For a further assay, the target named is HLA-A*02:01 (Homo sapiens, UniProt P04439, D140Y/D185E/D98H/E176V/E277Q/G131W/G231S/I119V/I121R/I166T/I218V/L300P/L318F/N151K/N90K/P208A/P217A/Q86G/Q94H/R138H/R169H/T345S). The experiment in a line: biochemical. The method, then: as §1
The target of a further assay is HLA-C*03:03 (Homo sapiens, UniProt P10321, A176E/A330V/A97T/C25G/C350S/D114A/D33Y/E197K/G115R/L119I/L127V/L171W/L218V/M285V/M309V/M331V/P208H/Q277E/Q291P/R243W/R45H/S123Y/S140Y/S297R/S48A/T118I/T187L/T329A/T363A/V319A). The conditions noted are these: C*03:03 measured as substitute for C*03:04; EC50 = peptide concentration at half saturation; refolding 20–24 h, room temperature, ELISA 450 nm; <100 nM = high affinity. The method, then:
as §1

Another assay addresses HLA-A*68:01 (Homo sapiens, UniProt P04439, A269V/D185E/E176V/E277Q/E87N/F33Y/G231S/I121M/I166T/I218V/L180W/L300P/L318F/N151K/P208A/P217A/Q86R/R169H/T345S). The assay can be described thus: biochemical. The procedure:
as §1

The target of a further assay is HLA-A*01:01 (Homo sapiens, UniProt P04439, A114D/A174V/A182V/D101N/D185E/E176A/E190D/L180R/Q94H/R68K/S129P/T187R/V100A/V91M/W191G). The experiment in a line: biochemical. The procedure: as §1
In assay [1] the test system is AAV9 capsid-specific CD8 T cells in healthy donor PBMCs. The experiment in a line: Peptide deconvolution FluoroSpot, CD4-depleted PBMCs expanded with Class I MAPPs pool (IFN-γ). Format: cell-based, human. The settings on record: for Total no. of responders: 24 healthy donors, CD4-depleted PBMCs expanded 10 days with Class I MAPPs pool, matrix pools 1 µg per peptide/mL, then individual peptide 2 µg/mL, ~24 h, positive = SI ≥1.4; for T cell response in tested donors / donors with the predicted binding allele (in words) / % response in donors with allele(s): CD4-depleted PBMCs expanded with Class I MAPPs pool; for T cell response in tested donors / donors with the predicted binding allele (in words): IFN-γ FluoroSpot; for % response in donors with allele(s): responders among cohort donors expressing the peptide's predicted HLA binding allele(s). The method, then: For the identification of immunodominant CD8 T cell epitopes, the 41 HLA Class I MAPPs peptides were arranged in a matrix of 13 pools, each containing 6–7 peptides ( Supplementary Table 4 ). Per the matrix, each matrix pool was constructed by combining the peptides listed in each column or each row ([16]). Peptides present at the intersection of responding matrix pools were shortlisted and tested individually. All matrix pools were dissolved in 100% DMSO and tested at 1 µg per peptide/mL. For individual testing, peptides were dissolved in 100% DMSO and tested at 2 µg/mL. Matrix pools and individual peptides were synthesized by GenScript.
Frozen PBMCs were thawed and resuspended in AIM V+ 5% SR at 1X10^6 cells/mL. Cells were stimulated with test peptide pools (1 µg per peptide/mL) and expanded in vitro for 10 days as described previously ([17]). On Days 4 and 7, cells were supplemented with a cytokine cocktail containing IL-2 (R&D Systems, 10 units/mL), IL-7 (R&D Systems, 10 ng/mL), and IL-15 (PeproTech, 10 ng/mL). On Day 10, cells were harvested, washed, and restimulated on precoated IFN-γ FluoroSpot plates (MabTech) in triplicates (125,000 cells/well). Peptide pools (1 µg per peptide/mL) or individual peptides (2 µg/mL, for deconvolution studies) were used for restimulation. Anti-CD3 antibody (MabTech, 100 ng/mL) and DMSO were used as positive and negative controls respectively. Plates were incubated at 37 degrees Celsius for ~ 24 hours and processed as described in the previous section.
For experiments involving T cell depletion, CD4 T cells were depleted via magnetic separation using human CD4 Microbeads (Miltenyi Biotec) and an AutoMACS separator (Miltenyi Biotec) according to manufacturer’s instructions. Depleted cells were washed with MACS buffer prior to seeding on culture plates.
For FluoroSpot assays, results were expressed as Spot Forming Units (SFU), calculated as the spot count per million PBMCs. The Stimulation Index (SI) was calculated as the average SFU in test wells/average SFU in DMSO control wells. For assays with fresh PBMCs, an SI of 2 or higher with a minimum of 50 SFU was counted as a positive IFN-γ/TNF-α response. For assays with expanded PBMCs, an SI of 1.4 or higher was set as the cutoff for a positive IFN-γ response. Predicted HLA binding alleles for each peptide were determined using MHCMotifDecon 1.0 as previously described ([13], [14], [23]). Predicted binding affinities for identified epitopes were determined using NetMHC 4.0 ([24]). Data tables and heatmaps were created using Excel. Data analysis and graphical representations were performed on Graph Pad Prism 10.
To identify the immunodominant CD8 T cell epitopes within the HLA Class I MAPPs peptides, we utilized a system of matrix pools which facilitates rapid mapping of immunodominant epitopes when investigating a large number of peptides. The 41 HLA Class I MAPPs peptides were arranged into 13 matrix pools (MPs), each containing 6–7 peptides ( Supplementary Table 4 ). The matrix arrangement allows each Class I peptide to feature in two MPs, and a restimulation response to both MPs containing a specific peptide identifies putative immunodominant peptides that can be verified on an individual basis. Peptide deconvolution was performed on a cohort of 24 healthy donors. PBMCs were depleted of CD4 T cells and expanded as described before with the Class I MAPPs pool (41 peptides). Expanded PBMCs were restimulated on FluoroSpot assays with the 13 MPs.

`CC(C)[C@H](NC(=O)[C@H](C)NC(=O)[C@H](CCCNC(=N)N)NC(=O)CN)C(=O)N[C@@H](Cc1ccccc1)C(=O)N[C@@H](CCC(N)=O)C(=O)N[C@@H](C)C(=O)N[C@@H](CCCCN)C(=O)N[C@@H](CCCCN)C(=O)O` [Peptide 5] (H-GRAVFQAKK-OH) came in with an EC50 at HLA-B*27:05 of 83.9 nM.

Regarding `CC(C)C[C@H](NC(=O)[C@H](C)NC(=O)[C@H](Cc1c[nH]c2ccccc12)NC(=O)[C@@H](NC(=O)[C@H](CCCNC(=N)N)NC(=O)[C@@H](N)[C@@H](C)O)[C@@H](C)O)C(=O)N1CCC[C@H]1C(=O)N[C@H](C(=O)N[C@@H](Cc1ccc(O)cc1)C(=O)O)[C@@H](C)O` [Peptide 10] (H-TRTWALPTY-OH), the figures for the EC50 at HLA-B*27:05 and at HLA-C*07:01 were 120 nM and over 10000 nM, respectively.

As to `CC(C)C[C@H](NC(=O)[C@H](Cc1c[nH]cn1)NC(=O)[C@H](CC(N)=O)NC(=O)[C@H](CC(N)=O)NC(=O)[C@H](Cc1ccc(O)cc1)NC(=O)[C@@H](NC(=O)[C@@H]1CCCN1C(=O)[C@@H](N)CC(C)C)[C@@H](C)O)C(=O)N[C@@H](Cc1ccc(O)cc1)C(=O)O` [Peptide 11] (H-LPTYNNHLY-OH), the response at HLA-B*35:01 was half-maximal at 96.7 nM (EC50).

Compound `CSCC[C@H](NC(=O)[C@H](CCC(N)=O)NC(=O)[C@H](CO)NC(=O)[C@@H]1CCCN1C(=O)[C@H](Cc1ccccc1)NC(=O)[C@H](Cc1ccc(O)cc1)NC(=O)[C@H](CCC(=O)O)NC(=O)[C@@H](N)CC(C)C)C(=O)N[C@@H](CC(C)C)C(=O)O` [Peptide 19] (H-LEYFPSQML-OH) gave an EC50 on HLA-B*40:01 of 0.1 nM.

Compound `CC(C)C[C@H](N)C(=O)N[C@@H](CCCNC(=N)N)C(=O)N[C@H](C(=O)NCC(=O)N[C@@H](CC(N)=O)C(=O)N[C@@H](CC(N)=O)C(=O)N[C@@H](Cc1ccccc1)C(=O)N[C@@H](CCC(N)=O)C(=O)N[C@@H](Cc1ccccc1)C(=O)O)[C@@H](C)O` [Peptide 20] (H-LRTGNNFQF-OH) showed an EC50 at HLA-B*27:05 of 122 nM.

`CC(C)[C@H](NC(=O)[C@H](CC(N)=O)NC(=O)[C@H](CCC(=O)O)NC(=O)[C@H](Cc1ccccc1)NC(=O)[C@H](CCC(=O)O)NC(=O)[C@H](Cc1ccc(O)cc1)NC(=O)[C@H](CO)NC(=O)[C@H](Cc1ccccc1)NC(=O)[C@H](CCC(N)=O)NC(=O)[C@@H](N)Cc1ccccc1)C(=O)O` [Peptide 21] (H-FQFSYEFENV-OH) displayed a 50% effective concentration (EC50) on HLA-A*02:01 of 0.6 nM.

Compound `CC[C@H](C)[C@H](NC(=O)[C@@H](N)CC(C)C)C(=O)N[C@@H](CC(=O)O)C(=O)N[C@@H](CCC(N)=O)C(=O)N[C@@H](Cc1ccc(O)cc1)C(=O)N[C@@H](CC(C)C)C(=O)N[C@@H](Cc1ccc(O)cc1)C(=O)N[C@@H](Cc1ccc(O)cc1)C(=O)N[C@@H](CC(C)C)C(=O)O` [Peptide 24] (H-LIDQYLYYL-OH) yielded an EC50 on HLA-A*02:01 of 0.6 nM.

Take `CSCC[C@H](NC(=O)[C@H](CC(N)=O)NC(=O)[C@H](CO)NC(=O)[C@@H]1CCCN1C(=O)CNC(=O)[C@H](C)NC(=O)[C@@H](NC(=O)[C@@H](N)CO)C(C)C)C(=O)N[C@@H](C)C(=O)N[C@H](C(=O)N[C@@H](CCC(N)=O)C(=O)NCC(=O)N[C@@H](CCCNC(=N)N)C(=O)O)C(C)C` [Peptide 26] (H-SVAGPSNMAVQGR-OH): the “Binding affinity (nM), C*03:03” value on HLA-C*03:03 was “Non-binder”. Further, the EC50 on HLA-A*68:01 worked out at 1.9 nM.

As to `CSCC[C@H](NC(=O)[C@H](CC(N)=O)NC(=O)[C@H](CO)NC(=O)[C@@H]1CCCN1C(=O)CNC(=O)[C@H](C)NC(=O)[C@@H](N)C(C)C)C(=O)N[C@@H](C)C(=O)N[C@H](C(=O)O)C(C)C` [Peptide 27] (H-VAGPSNMAV-OH), the “Binding affinity (nM), A*68:01” value on HLA-A*68:01 (EC50 = peptide concentration at half saturation, HLA heavy chain refolded with varying peptide conc., 20–24 h, room temperature, ELISA 450 nm, <100 nM = high affinity) was “Non-binder”.

In turn, `CC[C@H](C)[C@H](NC(=O)[C@@H]1CCCN1C(=O)[C@H](CCCNC(=N)N)NC(=O)[C@@H]1CCCN1C(=O)[C@H](CCC(=O)O)NC(=O)[C@H](CO)NC(=O)[C@@H](N)Cc1ccc(O)cc1)C(=O)NCC(=O)N[C@H](C(=O)N[C@@H](CCCNC(=N)N)C(=O)N[C@@H](Cc1ccc(O)cc1)C(=O)O)[C@@H](C)O` [Peptide 41] (H-YSEPRPIGTRY-OH) registered an EC50 on HLA-A*01:01 of 16.3 nM. In other words, the double-digit nanomolar range.

On to “QPAKKRLNF [Peptide 7, predicted allele B*07:02]”, for which, in [1] (IFN-γ), the “Total no. of responders” value turned out to be 0. Moreover, in assay [1], the “T cell response in tested donors / donors with the predicted binding allele (in words)” value is “did not elicit a response”. For the same compound, the “% response in donors with allele(s)” value in [1] (IFN-γ, SI ≥1.4) is recorded as 0/6 (0%).

As to “SQAVGRSSF [Peptide 17, predicted allele B*15:01]”, the “Total no. of responders” value in assay [1] (IFN-γ) is reported as 0. In addition, in [1], the “T cell response in tested donors / donors with the predicted binding allele (in words)” value is given as “did not elicit a response”. In addition, the “% response in donors with allele(s)” value in [1] (IFN-γ, SI ≥1.4) is 0/2 (0%).

For the compound TDSDYQLPYVL [Peptide 13], the “T cell response in tested donors / donors with the predicted binding allele (in words)” value in assay [1] is reported as “elicited a T cell response”. The Responding donors result in assay [1] (peptide deconvolution in 24 healthy donors, '-' = no responding donor, IFN-γ, SI ≥1.4) is “Donor # 442”.

Source of the values: PMC12371361 (Frontiers in Immunology, 2025).
